{"source": "patent US11572590B2", "about": "“Methods for evaluating tumor cell spheroids using 3D microfluidic cell culture device” (Dana-Farber Cancer Institute, Inc., priority 2017, dated 2023)", "assay_in_all_cases": "SelectScreen Kinase Profiling, single point inhibition and IC50 for off-target kinases", "type_in_all_cases": "biochemical", "key": {"off-target kinases [1]": {"molecular_target": "off-target kinases (Homo sapiens, UniProt P10721, V654A)", "sequence (P10721 26-976 V654A)": "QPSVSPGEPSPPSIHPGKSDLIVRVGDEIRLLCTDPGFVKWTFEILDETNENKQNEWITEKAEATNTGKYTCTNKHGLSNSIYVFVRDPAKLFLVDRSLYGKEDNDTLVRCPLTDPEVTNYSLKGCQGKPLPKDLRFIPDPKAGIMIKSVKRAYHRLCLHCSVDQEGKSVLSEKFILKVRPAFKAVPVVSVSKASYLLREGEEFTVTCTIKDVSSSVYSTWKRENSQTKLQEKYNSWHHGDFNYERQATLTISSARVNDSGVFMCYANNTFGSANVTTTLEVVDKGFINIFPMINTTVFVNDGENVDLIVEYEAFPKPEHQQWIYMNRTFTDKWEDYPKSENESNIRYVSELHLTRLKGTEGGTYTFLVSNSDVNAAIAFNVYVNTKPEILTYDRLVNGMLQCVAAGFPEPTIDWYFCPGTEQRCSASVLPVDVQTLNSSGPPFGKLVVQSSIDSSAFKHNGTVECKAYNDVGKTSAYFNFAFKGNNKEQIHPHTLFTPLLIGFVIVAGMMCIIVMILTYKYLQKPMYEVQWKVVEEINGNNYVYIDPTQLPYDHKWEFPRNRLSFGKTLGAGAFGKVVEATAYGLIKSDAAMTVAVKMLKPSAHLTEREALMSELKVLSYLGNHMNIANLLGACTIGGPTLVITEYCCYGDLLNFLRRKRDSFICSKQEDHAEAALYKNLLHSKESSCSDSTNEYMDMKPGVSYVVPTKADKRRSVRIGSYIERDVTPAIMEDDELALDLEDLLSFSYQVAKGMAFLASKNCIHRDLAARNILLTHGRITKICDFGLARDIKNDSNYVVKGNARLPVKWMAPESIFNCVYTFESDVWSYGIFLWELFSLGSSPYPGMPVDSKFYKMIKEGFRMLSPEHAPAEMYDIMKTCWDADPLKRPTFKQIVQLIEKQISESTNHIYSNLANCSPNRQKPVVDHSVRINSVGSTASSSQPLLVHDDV", "settings": "KIT V654A (mutant), LanthaScreen Binding"}, "off-target kinases [2]": {"molecular_target": "off-target kinases (Homo sapiens, UniProt P49759)", "sequence (P49759 whole entry)": "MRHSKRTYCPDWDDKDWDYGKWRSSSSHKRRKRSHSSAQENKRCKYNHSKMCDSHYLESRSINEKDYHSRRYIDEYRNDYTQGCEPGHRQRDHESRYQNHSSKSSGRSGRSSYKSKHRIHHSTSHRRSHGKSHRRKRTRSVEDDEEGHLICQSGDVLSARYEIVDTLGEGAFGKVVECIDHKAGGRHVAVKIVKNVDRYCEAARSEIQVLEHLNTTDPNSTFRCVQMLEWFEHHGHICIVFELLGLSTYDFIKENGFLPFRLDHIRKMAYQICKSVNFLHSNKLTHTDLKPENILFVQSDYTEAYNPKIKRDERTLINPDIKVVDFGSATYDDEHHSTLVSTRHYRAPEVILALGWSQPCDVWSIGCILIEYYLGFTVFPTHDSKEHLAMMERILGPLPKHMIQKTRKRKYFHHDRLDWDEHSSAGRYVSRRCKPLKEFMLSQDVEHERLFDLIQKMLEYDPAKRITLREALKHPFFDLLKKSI", "settings": "CLK1, ZLYTE, ATP Km app"}, "off-target kinases [3]": {"molecular_target": "T1, off-target kinases (Homo sapiens, UniProt P29322)", "T1 sequence (P29322 28-1005)": "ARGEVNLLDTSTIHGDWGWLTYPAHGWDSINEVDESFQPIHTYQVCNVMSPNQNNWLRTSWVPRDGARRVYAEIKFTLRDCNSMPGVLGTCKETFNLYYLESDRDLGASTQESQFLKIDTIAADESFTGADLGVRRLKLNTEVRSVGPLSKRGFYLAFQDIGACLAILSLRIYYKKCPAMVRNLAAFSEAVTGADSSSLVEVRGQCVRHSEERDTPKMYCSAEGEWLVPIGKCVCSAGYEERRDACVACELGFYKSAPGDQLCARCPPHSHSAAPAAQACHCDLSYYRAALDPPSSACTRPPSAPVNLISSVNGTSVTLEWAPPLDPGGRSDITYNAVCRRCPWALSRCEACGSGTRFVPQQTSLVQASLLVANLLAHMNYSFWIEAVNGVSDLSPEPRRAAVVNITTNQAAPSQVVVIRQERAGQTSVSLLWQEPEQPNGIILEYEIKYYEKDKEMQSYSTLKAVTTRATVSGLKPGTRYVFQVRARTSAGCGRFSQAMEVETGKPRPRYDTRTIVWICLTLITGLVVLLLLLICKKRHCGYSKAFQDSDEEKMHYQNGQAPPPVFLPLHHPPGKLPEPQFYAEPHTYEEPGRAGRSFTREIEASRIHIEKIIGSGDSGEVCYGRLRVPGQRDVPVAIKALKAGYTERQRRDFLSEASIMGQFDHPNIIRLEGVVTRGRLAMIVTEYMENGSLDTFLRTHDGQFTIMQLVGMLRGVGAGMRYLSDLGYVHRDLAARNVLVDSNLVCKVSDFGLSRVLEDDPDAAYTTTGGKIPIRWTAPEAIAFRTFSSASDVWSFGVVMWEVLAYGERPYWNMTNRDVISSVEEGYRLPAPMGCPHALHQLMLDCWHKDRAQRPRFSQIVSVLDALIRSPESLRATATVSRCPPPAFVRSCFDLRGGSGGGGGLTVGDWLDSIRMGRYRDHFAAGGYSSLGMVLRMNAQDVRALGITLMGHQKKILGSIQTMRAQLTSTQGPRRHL", "settings": "EPHA8, ZLYTE, ATP Km app"}, "off-target kinases [4]": {"molecular_target": "off-target kinases (Homo sapiens, UniProt Q9P0L2)", "sequence (Q9P0L2 whole entry)": "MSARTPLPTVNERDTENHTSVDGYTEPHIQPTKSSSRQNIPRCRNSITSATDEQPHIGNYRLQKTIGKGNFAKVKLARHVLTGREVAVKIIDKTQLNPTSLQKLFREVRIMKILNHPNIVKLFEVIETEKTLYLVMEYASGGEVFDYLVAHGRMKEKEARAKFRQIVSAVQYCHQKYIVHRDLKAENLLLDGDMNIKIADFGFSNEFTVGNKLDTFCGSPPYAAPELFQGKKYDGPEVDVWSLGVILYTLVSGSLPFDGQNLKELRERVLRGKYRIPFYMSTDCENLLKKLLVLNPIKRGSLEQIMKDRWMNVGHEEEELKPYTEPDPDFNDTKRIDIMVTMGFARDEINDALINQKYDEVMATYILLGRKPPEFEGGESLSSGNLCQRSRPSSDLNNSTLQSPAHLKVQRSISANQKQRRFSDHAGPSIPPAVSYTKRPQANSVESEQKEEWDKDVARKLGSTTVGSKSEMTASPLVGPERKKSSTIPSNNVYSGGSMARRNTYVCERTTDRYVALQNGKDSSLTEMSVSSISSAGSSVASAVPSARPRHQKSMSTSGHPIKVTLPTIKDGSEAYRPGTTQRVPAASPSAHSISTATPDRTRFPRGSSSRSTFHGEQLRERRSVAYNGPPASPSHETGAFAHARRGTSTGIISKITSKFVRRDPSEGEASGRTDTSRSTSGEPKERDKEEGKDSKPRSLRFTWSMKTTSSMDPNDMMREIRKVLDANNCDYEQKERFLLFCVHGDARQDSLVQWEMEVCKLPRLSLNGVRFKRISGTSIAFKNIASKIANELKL", "settings": "MARK1 (MARK), ATP Km app, ZLYTE"}, "off-target kinases [5]": {"molecular_target": "T2, off-target kinases (Homo sapiens, UniProt Q04771, R206H)", "T2 sequence (Q04771 21-509 R206H)": "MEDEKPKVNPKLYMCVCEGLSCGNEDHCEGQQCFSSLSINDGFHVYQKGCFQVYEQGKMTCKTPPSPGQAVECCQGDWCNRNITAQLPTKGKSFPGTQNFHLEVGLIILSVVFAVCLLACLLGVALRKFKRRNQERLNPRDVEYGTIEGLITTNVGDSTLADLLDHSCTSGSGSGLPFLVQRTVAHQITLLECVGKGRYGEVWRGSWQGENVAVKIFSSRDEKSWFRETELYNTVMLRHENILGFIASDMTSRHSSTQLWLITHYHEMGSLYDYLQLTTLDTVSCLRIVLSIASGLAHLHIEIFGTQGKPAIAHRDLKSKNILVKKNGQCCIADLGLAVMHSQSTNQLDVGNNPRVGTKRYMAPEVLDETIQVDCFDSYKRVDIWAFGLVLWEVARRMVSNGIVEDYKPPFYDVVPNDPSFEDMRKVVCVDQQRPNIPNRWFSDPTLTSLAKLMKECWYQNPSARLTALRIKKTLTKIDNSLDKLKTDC", "settings": "ACVR1 (ALK2) R206H, LanthaScreen Binding"}}, "note": "Where two headings read alike, the source gives them in different places.", "data": [{"smiles": "N#Cc1cc(-c2ncnc(Nc3ccc(N4CCN(C5COC5)CC4)cc3)n2)ccc1OC1CCOCC1", "note": "[Compound 1, 5-(4-((4-(4-(oxetan-3-yl)piperazin-1-yl)phenyl)amino)-1,3,5-triazin-2-yl)-2-((tetrahydro-2H-pyran-4-yl)oxy)benzonitrile]", "values": [{"measurement": "inhibition", "setting": "off-target kinases [1]; read-out: % Inhibition 1", "result": 7, "unit": "%"}, {"measurement": "inhibition", "setting": "off-target kinases [1]; read-out: % Inhibition 2", "result": 10, "unit": "%"}, {"measurement": "inhibition", "setting": "off-target kinases [1]; read-out: % Inhibition Avg", "result": 9, "unit": "%"}, {"measurement": "inhibition", "setting": "off-target kinases [2]; read-out: % Inhibition 1", "result": 33, "unit": "%"}, {"measurement": "inhibition", "setting": "off-target kinases [2]; read-out: % Inhibition 2", "result": 34, "unit": "%"}, {"measurement": "inhibition", "setting": "off-target kinases [2]; read-out: % Inhibition Avg", "result": 33, "unit": "%"}, {"measurement": "inhibition", "setting": "off-target kinases [3]; read-out: % Inhibition 1", "result": 11, "unit": "%"}, {"measurement": "inhibition", "setting": "off-target kinases [3]; read-out: % Inhibition 2", "result": 7, "unit": "%"}, {"measurement": "inhibition", "setting": "off-target kinases [3]; read-out: % Inhibition Avg", "result": 9, "unit": "%"}, {"measurement": "inhibition", "setting": "off-target kinases [4]; read-out: % Inhibition 1", "result": 85, "unit": "%"}, {"measurement": "inhibition", "setting": "off-target kinases [4]; read-out: % Inhibition 2", "result": 87, "unit": "%"}, {"measurement": "inhibition", "setting": "off-target kinases [4]; read-out: % Inhibition Avg", "result": 86, "unit": "%"}, {"measurement": "inhibition", "setting": "off-target kinases [5]; read-out: % Inhibition 1", "result": 88, "unit": "%"}, {"measurement": "inhibition", "setting": "off-target kinases [5]; read-out: % Inhibition 2", "result": 93, "unit": "%"}, {"measurement": "inhibition", "setting": "off-target kinases [5]; read-out: % Inhibition Avg", "result": 91, "unit": "%"}]}]}
